This passage reports relative viability results from the supplement of paper PMC10307832.

Common to all, as to assay: relative viability (nuclei count vs DMSO), 5 days (fraction); higher = more cells survive
Compound in the assay “Carboplatin + AZD7762”: C1CC(C1)(C(=O)O)C(=O)O.[NH2-].[NH2-].[Pt+2] [Carboplatin] + NC(=O)Nc1cc(-c2cccc(F)c2)sc1C(=O)N[C@H]1CCCNC1 [AZD7762] (partner 0.2 µM)
In a few lines:
(§1)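 Lung cancer cell lines in 1536-well plates were dosed by pin tool the day after seeding, either with one drug alone or with a fixed anchor-drug dose plus five library-drug doses (not always all listed) in √10 steps. After 5 days, cells were fixed and their nuclei stained in one step (final 0.05% Triton X-100, 1% formaldehyde, 1 ug/ml Hoechst), then counted on 4× images. Relative viability is the nuclei count in treated wells divided by that in vehicle wells. Values are medians of duplicate plates.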

Compound in the assay “Carboplatin + Vorinostat”: C1CC(C1)(C(=O)O)C(=O)O.[NH2-].[NH2-].[Pt+2] [Carboplatin] + O=C(CCCCCCC(=O)Nc1ccccc1)NO [Vorinostat] (partner 1 µM)
The procedure, abridged:
as §1

Compound in the assay “GSK126 + Bortezomib”: CC[C@H](C)N1C=C(C2=C(C=C(C=C21)C3=CN=C(C=C3)N4CCNCC4)C(=O)NCC5=C(C=C(NC5=O)C)C)C [GSK126] + CC(C)C[C@H](NC(=O)[C@H](Cc1ccccc1)NC(=O)c1cnccn1)B(O)O [Bortezomib] (partner 0.002 µM)
The procedure, abridged: as §1

Compound in the assay “GSK126 + Alpelisib”: CC[C@H](C)N1C=C(C2=C(C=C(C=C21)C3=CN=C(C=C3)N4CCNCC4)C(=O)NCC5=C(C=C(NC5=O)C)C)C [GSK126] + Cc1nc(NC(=O)N2CCC[C@H]2C(N)=O)sc1-c1ccnc(C(C)(C)C(F)(F)F)c1 [Alpelisib] (partner 2 µM)
The procedure, abridged:
as §1

On to NCI-H1666, for which the relative viability with Carboplatin + AZD7762 (first compound 0.08 µM) is 0.973; with Carboplatin + AZD7762 (first compound 0.253 µM), 0.916; in the assay with Carboplatin + AZD7762 (first compound 0.8 µM), 0.811; with Carboplatin + AZD7762 (first compound 2.53 µM), 0.779; with Carboplatin + AZD7762 (first compound 8 µM), 0.831; with Carboplatin + Vorinostat (first compound 0.08 µM) it was 1.09. The relative viability worked out at 0.966 in the assay with Carboplatin + Vorinostat (first compound 0.253 µM); 1.04 with Carboplatin + Vorinostat (first compound 0.8 µM); 0.921 with Carboplatin + Vorinostat (first compound 2.53 µM); 0.665 in the assay with Carboplatin + Vorinostat (first compound 8 µM); 0.826 with GSK126 + Bortezomib (first compound 0.08 µM); 0.962 with GSK126 + Bortezomib (first compound 0.253 µM). Further, the relative viability in the assay with GSK126 + Bortezomib (first compound 0.8 µM) came to 0.814; with GSK126 + Bortezomib (first compound 2.53 µM), 0.808; with GSK126 + Bortezomib (first compound 8 µM) it was 1.01; with GSK126 + Alpelisib (first compound 0.08 µM), 1; with GSK126 + Alpelisib (first compound 0.253 µM) it was 0.964; with GSK126 + Alpelisib (first compound 0.8 µM), 1.05. Moreover, the relative viability with GSK126 + Alpelisib (first compound 2.53 µM) is 0.962; in the assay with GSK126 + Alpelisib (first compound 8 µM), 1.12.

Regarding NCI-H1734, the relative viability with Carboplatin + AZD7762 (first compound 0.08 µM) was found to be 0.575; in the assay with Carboplatin + AZD7762 (first compound 0.253 µM) it was 0.558; with Carboplatin + AZD7762 (first compound 0.8 µM), 0.558; with Carboplatin + AZD7762 (first compound 2.53 µM), 0.46; with Carboplatin + AZD7762 (first compound 8 µM), 0.419; with Carboplatin + Vorinostat (first compound 0.08 µM), 0.823. Further, the relative viability in the assay with Carboplatin + Vorinostat (first compound 0.253 µM) stood at 0.83; in the assay with Carboplatin + Vorinostat (first compound 0.8 µM) it was 0.78; in the assay with Carboplatin + Vorinostat (first compound 2.53 µM), 0.779; in the assay with Carboplatin + Vorinostat (first compound 8 µM), 0.545; with GSK126 + Bortezomib (first compound 0.08 µM), 0.98; with GSK126 + Bortezomib (first compound 0.253 µM), 0.979. In addition, the relative viability in the assay with GSK126 + Bortezomib (first compound 0.8 µM) is 1.02; with GSK126 + Bortezomib (first compound 2.53 µM) it was 0.87; with GSK126 + Bortezomib (first compound 8 µM) it was 0.871; in the assay with GSK126 + Alpelisib (first compound 0.08 µM) it was 0.789; with GSK126 + Alpelisib (first compound 0.253 µM) it was 0.605; with GSK126 + Alpelisib (first compound 0.8 µM) it was 0.654. Besides, the relative viability stood at 0.698 in the assay with GSK126 + Alpelisib (first compound 2.53 µM) and 0.682 with GSK126 + Alpelisib (first compound 8 µM).

Take NCI-H1755: the relative viability with Carboplatin + AZD7762 (first compound 0.08 µM) was determined as 0.445; with Carboplatin + AZD7762 (first compound 0.253 µM), 0.477; in the assay with Carboplatin + AZD7762 (first compound 0.8 µM), 0.491; in the assay with Carboplatin + AZD7762 (first compound 2.53 µM) it was 0.465; with Carboplatin + AZD7762 (first compound 8 µM), 0.419; in the assay with Carboplatin + Vorinostat (first compound 0.08 µM), 0.793. Further, the relative viability turned out to be 0.834 with Carboplatin + Vorinostat (first compound 0.253 µM); 0.874 with Carboplatin + Vorinostat (first compound 0.8 µM); 0.722 in the assay with Carboplatin + Vorinostat (first compound 2.53 µM); 0.685 with Carboplatin + Vorinostat (first compound 8 µM); 0.979 with GSK126 + Bortezomib (first compound 0.08 µM); 0.978 with GSK126 + Bortezomib (first compound 0.253 µM). In addition, the relative viability in the assay with GSK126 + Bortezomib (first compound 0.8 µM) was determined as 1.05; in the assay with GSK126 + Bortezomib (first compound 2.53 µM) it was 0.839; with GSK126 + Bortezomib (first compound 8 µM), 0.922; with GSK126 + Alpelisib (first compound 0.08 µM), 0.927; with GSK126 + Alpelisib (first compound 0.253 µM), 0.974; with GSK126 + Alpelisib (first compound 0.8 µM) it was 0.951. In addition, the relative viability in the assay with GSK126 + Alpelisib (first compound 2.53 µM) stood at 0.866; with GSK126 + Alpelisib (first compound 8 µM), 0.883.

Consider NCI-H1915, for which the relative viability stood at 0.64 with Carboplatin + AZD7762 (first compound 0.08 µM); 0.706 with Carboplatin + AZD7762 (first compound 0.253 µM); 0.679 with Carboplatin + AZD7762 (first compound 0.8 µM); 0.647 with Carboplatin + AZD7762 (first compound 2.53 µM); 0.39 with Carboplatin + AZD7762 (first compound 8 µM); 0.508 in the assay with Carboplatin + Vorinostat (first compound 0.08 µM). The relative viability with Carboplatin + Vorinostat (first compound 0.253 µM) came out at 0.506; in the assay with Carboplatin + Vorinostat (first compound 0.8 µM) it was 0.513; with Carboplatin + Vorinostat (first compound 2.53 µM), 0.48; with Carboplatin + Vorinostat (first compound 8 µM) it was 0.299; in the assay with GSK126 + Bortezomib (first compound 0.08 µM), 1.02; with GSK126 + Bortezomib (first compound 0.253 µM), 0.964. Moreover, the relative viability came out at 0.991 in the assay with GSK126 + Bortezomib (first compound 0.8 µM); 0.979 with GSK126 + Bortezomib (first compound 2.53 µM); 0.998 with GSK126 + Bortezomib (first compound 8 µM); 1.16 with GSK126 + Alpelisib (first compound 0.08 µM); 1.05 with GSK126 + Alpelisib (first compound 0.253 µM); 1.08 with GSK126 + Alpelisib (first compound 0.8 µM). Also, the relative viability with GSK126 + Alpelisib (first compound 2.53 µM) stood at 1.05; with GSK126 + Alpelisib (first compound 8 µM) it was 1.09.

For NCI-H1975, the relative viability with Carboplatin + AZD7762 (first compound 0.08 µM) turned out to be 0.868; in the assay with Carboplatin + AZD7762 (first compound 0.253 µM), 0.746; with Carboplatin + AZD7762 (first compound 0.8 µM), 0.679; in the assay with Carboplatin + AZD7762 (first compound 2.53 µM) it was 0.742; in the assay with Carboplatin + AZD7762 (first compound 8 µM) it was 0.691; with Carboplatin + Vorinostat (first compound 0.08 µM), 0.783. Besides, the relative viability with Carboplatin + Vorinostat (first compound 0.253 µM) was 0.711; with Carboplatin + Vorinostat (first compound 0.8 µM), 0.579; with Carboplatin + Vorinostat (first compound 2.53 µM), 0.534; in the assay with Carboplatin + Vorinostat (first compound 8 µM), 0.656; in the assay with GSK126 + Bortezomib (first compound 0.08 µM), 0.509; with GSK126 + Bortezomib (first compound 0.253 µM), 0.31. Moreover, the relative viability with GSK126 + Bortezomib (first compound 0.8 µM) is 0.361; with GSK126 + Bortezomib (first compound 2.53 µM), 0.392; in the assay with GSK126 + Bortezomib (first compound 8 µM), 0.343; with GSK126 + Alpelisib (first compound 0.08 µM), 0.741; with GSK126 + Alpelisib (first compound 0.253 µM), 0.649; with GSK126 + Alpelisib (first compound 0.8 µM), 0.607. Besides, the relative viability with GSK126 + Alpelisib (first compound 2.53 µM) is 0.643; with GSK126 + Alpelisib (first compound 8 µM), 0.616.

For the cell line NCI-H1993, the relative viability in the assay with Carboplatin + AZD7762 (first compound 0.08 µM) was found to be 0.973; with Carboplatin + AZD7762 (first compound 0.253 µM), 0.899; in the assay with Carboplatin + AZD7762 (first compound 0.8 µM), 0.864; with Carboplatin + AZD7762 (first compound 2.53 µM) it was 0.871; with Carboplatin + AZD7762 (first compound 8 µM) it was 0.695; in the assay with Carboplatin + Vorinostat (first compound 0.08 µM), 0.801. For the same cell line, the relative viability worked out at 0.809 in the assay with Carboplatin + Vorinostat (first compound 0.253 µM); 0.8 with Carboplatin + Vorinostat (first compound 0.8 µM); 0.712 with Carboplatin + Vorinostat (first compound 2.53 µM); 0.522 with Carboplatin + Vorinostat (first compound 8 µM); 1.23 with GSK126 + Bortezomib (first compound 0.08 µM); 1.06 in the assay with GSK126 + Bortezomib (first compound 0.253 µM). The relative viability with GSK126 + Bortezomib (first compound 0.8 µM) was determined as 1.11; in the assay with GSK126 + Bortezomib (first compound 2.53 µM), 1.04; with GSK126 + Bortezomib (first compound 8 µM) it was 0.995; with GSK126 + Alpelisib (first compound 0.08 µM), 0.632; with GSK126 + Alpelisib (first compound 0.253 µM), 0.72; with GSK126 + Alpelisib (first compound 0.8 µM) it was 0.773. Further, the relative viability in the assay with GSK126 + Alpelisib (first compound 2.53 µM) came to 0.748; with GSK126 + Alpelisib (first compound 8 µM) it was 0.661.

Take NCI-H2085: the relative viability with Carboplatin + AZD7762 (first compound 0.08 µM) was 1.02; in the assay with Carboplatin + AZD7762 (first compound 0.253 µM), 1.01; in the assay with Carboplatin + AZD7762 (first compound 0.8 µM), 0.973; with Carboplatin + AZD7762 (first compound 2.53 µM), 0.995; with Carboplatin + AZD7762 (first compound 8 µM), 0.909; with Carboplatin + Vorinostat (first compound 0.08 µM) it was 0.803. Moreover, the relative viability with Carboplatin + Vorinostat (first compound 0.253 µM) worked out at 0.764; with Carboplatin + Vorinostat (first compound 0.8 µM) it was 0.839; in the assay with Carboplatin + Vorinostat (first compound 2.53 µM) it was 0.761; with Carboplatin + Vorinostat (first compound 8 µM), 0.711; with GSK126 + Bortezomib (first compound 0.08 µM), 1.19; in the assay with GSK126 + Bortezomib (first compound 0.253 µM), 0.998. For the same cell line, the relative viability in the assay with GSK126 + Bortezomib (first compound 0.8 µM) was found to be 1.12; in the assay with GSK126 + Bortezomib (first compound 2.53 µM), 1.04; in the assay with GSK126 + Bortezomib (first compound 8 µM) it was 1.05; with GSK126 + Alpelisib (first compound 0.08 µM), 1.07; with GSK126 + Alpelisib (first compound 0.253 µM) it was 0.912; in the assay with GSK126 + Alpelisib (first compound 0.8 µM), 1. Further, the relative viability came out at 0.906 in the assay with GSK126 + Alpelisib (first compound 2.53 µM) and 0.995 with GSK126 + Alpelisib (first compound 8 µM).
